# Measurements published in ChEMBL document CHEMBL1142943, “Homology modeling of human Fyn kinase structure: discovery of rosmarinic acid as a new Fyn kinase inhibitor and in silico study of its possible binding modes” (J Med Chem, 2007).
# Key:
# [1] = biological target: T1, Tyrosine-protein kinase Fyn (Homo sapiens, UniProt P06241); assay: Inhibition of human Fyn expressed in Sf9 cells after 20 mins by ELISA in presence of 1 umol/L ATP
# [2] = biological target: T1, Tyrosine-protein kinase Fyn; assay: Inhibition of human Fyn expressed in Sf9 cells after 20 mins by ELISA in presence of 10 umol/L ATP
# [3] = biological target: T1, Tyrosine-protein kinase Fyn; assay: Inhibition of human Fyn expressed in Sf9 cells after 20 mins by ELISA in presence of 100 umol/L ATP
# [4] = biological target: T1, Tyrosine-protein kinase Fyn; assay: Inhibition of human Fyn expressed in Sf9 cells after 1 min by ELISA in presence of 1 umol/L ATP
# [5] = biological target: T1, Tyrosine-protein kinase Fyn; assay: Inhibition of human Fyn expressed in Sf9 cells after 1 min by ELISA in presence of 10 umol/L ATP
# [6] = biological target: T1, Tyrosine-protein kinase Fyn; assay: Inhibition of human Fyn expressed in Sf9 cells after 1 min by ELISA in presence of 100 umol/L ATP
# [7] = biological target: T1, Tyrosine-protein kinase Fyn; assay: Inhibition of human Fyn expressed in Sf9 cells at 10 umol/L by ELISA
# [8] = biological target: T1, Tyrosine-protein kinase Fyn; assay: Inhibition of human Fyn expressed in Sf9 cells at 30 umol/L by ELISA
# T1 sequence (P06241 whole entry): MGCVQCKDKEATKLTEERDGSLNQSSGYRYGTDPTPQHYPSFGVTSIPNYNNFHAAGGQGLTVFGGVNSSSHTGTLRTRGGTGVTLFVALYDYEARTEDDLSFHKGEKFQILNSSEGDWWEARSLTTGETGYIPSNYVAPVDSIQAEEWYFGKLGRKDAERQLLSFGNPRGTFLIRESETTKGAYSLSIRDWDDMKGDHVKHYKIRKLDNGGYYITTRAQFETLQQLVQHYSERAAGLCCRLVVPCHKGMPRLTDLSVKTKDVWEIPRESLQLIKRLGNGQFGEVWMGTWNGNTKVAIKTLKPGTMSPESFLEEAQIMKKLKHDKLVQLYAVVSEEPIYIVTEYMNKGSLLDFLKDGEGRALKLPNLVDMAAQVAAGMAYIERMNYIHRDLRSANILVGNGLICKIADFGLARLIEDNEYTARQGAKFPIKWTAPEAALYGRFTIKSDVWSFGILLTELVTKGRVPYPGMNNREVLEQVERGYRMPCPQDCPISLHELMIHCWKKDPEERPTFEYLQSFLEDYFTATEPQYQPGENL
structure (smiles),measurement,setting,value
O=C(/C=C/c1ccc(O)c(O)c1)O[C@H](Cc1ccc(O)c(O)c1)C(=O)O [ROSMARINIC ACID],IC50,[1],1.3 µM
same,IC50,[2],3.6 µM
same,IC50,[3],17 µM
same,IC50,[4],36 µM
same,IC50,[5],74 µM
same,IC50,[6],63 µM
same,Ki,[7],7.5 µM
same,Ki,[8],10.2 µM
